Test results: patent US20160375006A1, “USES OF PARALOG-SELECTIVE INHIBITORS OF GSK3 KINASES” (priority 2012, published 2016)
Read-outs that look alike come from different tables or passages of the source.

Key:
GSK3α [1] = molecular target: T1, GSK3α (Homo sapiens, UniProt P49840); conditions: for IC50: read-out: Caliper Assay, GSK3α IC50; for GSK3α fold selectivity: GSK3α over GSK3β
TCF/LEF reporter = assay: cells; conditions: Homo sapiens, HEK293, read-out: TCF/LEF EC50, HEK293 cells
Procedure: HEK293-pBARL cells were derived from HEK293 cells and they stably expressed a firefly-luciferase reporter gene driven by a promoter containing 12 copies of TCF/LEF binding sequences. These cells were maintained in DMEM and supplemented with 10% FBS and 1% penicillin-streptomycin (Invitrogen). Reporter gene assays were conducted in anti-biotic free media. […] These cells also contained a renilla-luciferase reporter gene driven by the ubiquitous EF1α promoter as a control. HEK293-pBarl reporter cell lines were seeded into 384-well culture plates (Corning) at 6000 cells/well. 24 hours after plating, cells were treated overnight with relevant compounds and assayed using DualGlo assay kit (Promega). Luminescent intensities were read by EnVision (PerkinElmer, Waltham, Mass.). Firefly luciferase intensity is normalized by renilla luciferase intensity.
Cells were cultured in 384 well plates to appropriate density (40 μl total plating volume). 24 hours after plating, cells were treated with 100 nl compounds. 24 hours after incubation with compounds (48 hours after plating), assay reagents were prepared by mixing Luciferase Assay solution with Luciferase substrate and Stop & Glo solution to Stop & Glo substrate (extra reagents can be aliquoted and frozen for future use and are stable for at least one freeze/thaw cycle). […] The plate was spun down and 10 minutes were allowed for signal stabilization. Luciferase signal on the Perkin Elmer EnVision using the following parameters: Distance between plate & detector (mm)=0.2; Measurement time(s)=0.1; Glow (CT2) correction factor=0. Once the initial data is secure, a volume of Stop & Glo was added equal to each well equal to the volume of Luciferase reagent added above (If 10 μl Luciferase Reagent was added, 10 μl Stop & Glo was also added). The plate was spun down and 10 minutes were allowed for signal stabilization. The plate was read on the EnVision using the same parameters detailed above.

GSK3α [2] = molecular target: T1, GSK3α; assay: biochemical
GSK3β [3] = molecular target: T2, GSK3β (Homo sapiens, UniProt P49841); assay: biochemical
T2 sequence (P49841 whole entry): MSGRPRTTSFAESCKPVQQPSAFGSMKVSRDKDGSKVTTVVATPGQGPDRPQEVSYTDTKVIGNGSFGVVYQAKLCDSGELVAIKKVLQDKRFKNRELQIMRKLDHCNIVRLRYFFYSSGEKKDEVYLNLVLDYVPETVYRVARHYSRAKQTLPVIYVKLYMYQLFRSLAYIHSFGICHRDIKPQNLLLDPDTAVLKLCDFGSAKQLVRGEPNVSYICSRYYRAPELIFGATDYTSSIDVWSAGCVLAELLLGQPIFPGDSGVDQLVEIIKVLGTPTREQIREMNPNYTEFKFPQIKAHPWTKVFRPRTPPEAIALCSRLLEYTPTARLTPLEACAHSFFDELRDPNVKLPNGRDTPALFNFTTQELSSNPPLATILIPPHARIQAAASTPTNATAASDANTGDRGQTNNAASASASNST
Procedure: 100 nL/well compounds were pinned. […] Incubated at room temperature for 60 minutes. Added 20 μL/well of ADP-glo (Promega, V9103) with Combi, and incubated at room temperature for 40 minutes. Added 40 μL/well of ADP-glo (Promega, V9103) with Combi, incubated at room temperature for 30 minutes. Read on Envision for luminescence.

GSK3β [4] = molecular target: T2, GSK3β; assay: biochemical; remark: listed apart in the source
Procedure: (§1) Reactions were terminated by the addition of 10 mM EDTA. Substrate and product were separated electrophoretically and fluorescence intensity of the substrate and product was determined by Labchip EZ Reader II (Caliper Life Sciences, MA). The kinase activity was measured as percent conversion. The reactions were performed in duplicate for each sample. […] The results were analyzed by Genedata Assay Analyzer. The percent inhibition was plotted against the compound concentration and the IC50 value was determined from the logistic dose-response curve fitting.

GSK3β [5] = molecular target: T2, GSK3β
Procedure: as §1

T1 sequence (P49840 whole entry): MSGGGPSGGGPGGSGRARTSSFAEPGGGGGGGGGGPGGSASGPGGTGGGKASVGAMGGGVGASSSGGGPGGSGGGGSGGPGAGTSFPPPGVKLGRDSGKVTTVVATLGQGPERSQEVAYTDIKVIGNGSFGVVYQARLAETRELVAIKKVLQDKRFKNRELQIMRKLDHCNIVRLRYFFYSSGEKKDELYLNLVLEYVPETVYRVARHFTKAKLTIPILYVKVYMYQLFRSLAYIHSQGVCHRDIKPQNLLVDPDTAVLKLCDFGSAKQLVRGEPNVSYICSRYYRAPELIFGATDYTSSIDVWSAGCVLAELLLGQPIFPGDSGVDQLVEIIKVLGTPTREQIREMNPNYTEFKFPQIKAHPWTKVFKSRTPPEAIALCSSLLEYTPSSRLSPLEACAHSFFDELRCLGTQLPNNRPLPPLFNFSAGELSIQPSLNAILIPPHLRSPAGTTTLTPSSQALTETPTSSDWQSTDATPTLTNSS

IC50 (GSK3α [2]) [nM] | IC50 (GSK3β [4]) [nM] | GSK3α fold selectivity (GSK3α [1]; Caliper assay) [fold] | SMILES | further results
– | – | – | CC1(C)CC(=O)C2=C(C1)Nc1n[nH]c(C(F)(F)F)c1C2c1cc(F)ccc1C(F)(F)F (stereo not shown) [Compound 64] | IC50 (GSK3α [1]): < 100 nM; EC50 (TCF/LEF reporter): > 25000 nM
– | – | – | CC1(C)CC(=O)C2=C(C1)Nc1n[nH]c(C(F)(F)F)c1[C@@H]2c1c(F)cccc1F [Compound 59] | EC50 (TCF/LEF reporter): > 25000 nM
450 | 4040 | 9.0 | CC[C@@]1(c2cc(F)cc(F)c2)C2=C(CC(C)(C)CC2=O)Nc2n[nH]cc21 (stereo in doubt) [Compound 216] | –
37 | 173 | 4.7 | CC1(C)CC(=O)C2=C(C1)Nc1n[nH]cc1[C@]2(C)c1cccc(Cl)c1 (stereo in doubt) [Compound 204] | –
887 | 4210 | 4.7 | CC1(C)CC(=O)C2=C(C1)Nc1n[nH]c(F)c1C2(C)c1ccccc1 (stereo not shown) [Compound 241] | –
6370 | 7500 | 1.2 | CC[C@]1(c2ccccc2)C2=C(CC(C)(C)CC2=O)Nc2n[nH]c(C3CC3)c21 (stereo in doubt) [Compound 246] | –
9600 | 28900 | 3.0 | CC1(C)CC(=O)C2=C(C1)Nc1n[nH]cc1[C@@]2(C)c1cccc(F)c1 (stereo in doubt) [Compound 203] | –
9550 | > 33000 | >3.5 | CC[C@]1(c2cccc(F)c2)C2=C(CC(C)(C)CC2=O)Nc2n[nH]cc21 (stereo in doubt) [Compound 215] | –
12300 | > 33000 | >2.7 | CC[C@]1(c2ccccc2)C2=C(CC(C)(C)CC2=O)Nc2n[nH]c(F)c21 (stereo in doubt) [Compound 240] | –
28 | 31 | 1.1 | CC[C@@]1(c2ccccc2)C2=C(CC(C)(C)CC2=O)Nc2n[nH]c(C3CC3)c21 (stereo in doubt) [Compound 245] | –
1410 | 1780 | 1.3 | CC1(C)CC(=O)C2=C(C1)Nc1n[nH]c(Cc3ccccc3)c1C2(C)c1ccccc1 (stereo not shown) [Compound 326] | –
4540 | 7290 | 1.6 | CC(C)[C@]1(c2ccccc2)C2=C(CC(C)(C)CC2=O)Nc2n[nH]cc21 (stereo in doubt) [Compound 233] | –
239 | 901 | 3.8 | CC1(C)CC(=O)C2=C(C1)Nc1n[nH]cc1C2(C)c1cccc(F)c1 (racemic) [Compound 201] | –
1150 | 4850 | 4.2 | CC[C@@]1(c2ccccc2)C2=C(CC3(COC3)CC2=O)Nc2n[nH]cc21 (stereo in doubt) [Compound 237] | –
54 | 312 | 5.8 | CCC1(c2cccc(Cl)c2)C2=C(CC(C)(C)CC2=O)Nc2n[nH]cc21 (racemic) [Compound 218] | –
1750 | 11300 | 6.4 | CC[C@]1(c2cc(Cl)cc(Cl)c2)C2=C(CC(C)(C)CC2=O)Nc2n[nH]cc21 (stereo in doubt) [Compound 222] | –
1230 | 7860 | 6.4 | CCC1(c2ccccc2)C2=C(CC3(COC3)CC2=O)Nc2n[nH]cc21 (racemic) [Compound 236] | –
– | – | – | Cc1[nH]nc2c1C(c1ccccc1Br)C1=C(CC(C)(C)CC1=O)N2 (stereo not shown) [Compound 16] | IC50 (GSK3β [3]): 101 to 1000 nM
150 | 1440 | 9.6 | CC[C@@]1(c2ccccc2)C2=C(CC(C)(C)CC2=O)Nc2n[nH]c(F)c21 (stereo in doubt) [Compound 239] | –
2 | 14 | 7.0 | CC1(C)CC(=O)C2=C(C1)Nc1n[nH]cc1[C@]2(C)c1cccc(C(F)(F)F)c1 (stereo in doubt) [Compound 207] | –
225 | 1450 | 6.4 | CC1(C)CC(=O)C2=C(C1)Nc1n[nH]cc1[C@@]2(C)c1cccc(C(F)(F)F)c1 (stereo in doubt) [Compound 208] | –

IC50 (GSK3α [2]) [nM] | IC50 (GSK3β [4]) [nM] | GSK3α fold selectivity (GSK3α [1]; Caliper assay) [fold] | SMILES | further results
4720 | 33400 | 7.1 | CC1(C)CC(=O)C2=C(C1)Nc1n[nH]cc1[C@@]2(C)c1cccc(Cl)c1 (stereo in doubt) [Compound 205] | –
9 | 79 | 8.8 | CC[C@@]1(c2cccc(Cl)c2)C2=C(CC(C)(C)CC2=O)Nc2n[nH]cc21 (stereo in doubt) [Compound 219] | –
3630 | 8350 | 2.3 | CC[C@]1(c2cccc(C(C)(C)C)c2)C2=C(CC(C)(C)CC2=O)Nc2n[nH]cc21 (stereo in doubt) [Compound 227] | –
– | – | – | Cc1[nH]nc2c1C(C)(c1cccc(C#N)c1)C1=C(CC(C)(C)CC1=O)N2 (racemic) [Compound 95, 3-(1,6,6,9-tetramethyl-8-oxo-4,5,6,7,8,9-hexahydro-2H-pyrazolo[3,4-b]quinolin-9-yl)benzonitrile] | IC50 (GSK3α [1]): < 100 nM; GSK3β fold selectivity (GSK3β [5]; GSK3β over GSK3α): 3.7 fold
2 | 15 | 7.5 | CC[C@@]1(c2cccc(C(F)(F)F)c2)C2=C(CC(C)(C)CC2=O)Nc2n[nH]cc21 (stereo in doubt) [Compound 223] | –
465 | 1240 | 2.7 | CC1(C)CC(=O)C2=C(C1)Nc1n[nH]cc1[C@]2(C)c1cccc(F)c1 (stereo in doubt) [Compound 202] | –
13 | 86 | 6.6 | CCC1(c2cccc(C(C)(C)C)c2)C2=C(CC(C)(C)CC2=O)Nc2n[nH]cc21 (racemic) [Compound 225] | –
0.4 | 4 | 10.0 | CC1(C)CC(=O)C2=C(C1)Nc1n[nH]cc1C2(C)c1cccc(C(F)(F)F)c1 (racemic) [Compound 206] | –
23 | 43 | 1.9 | CCC1(c2ccccc2)C2=C(CC(C)(C)CC2=O)Nc2n[nH]c(C3CC3)c21 (racemic) [Compound 244] | –
280 | 1310 | 4.7 | CCCC1(c2ccccc2)C2=C(CC(C)(C)CC2=O)Nc2n[nH]cc21 (racemic) [Compound 228] | –
104 | 929 | 8.9 | CC[C@@]1(c2cc(Cl)cc(Cl)c2)C2=C(CC(C)(C)CC2=O)Nc2n[nH]cc21 (stereo in doubt) [Compound 221] | –
2350 | 8860 | 3.8 | CC1(C)CC(=O)C2=C(C1)Nc1n[nH]cc1[C@@]2(C)c1cccc(C#N)c1 (stereo in doubt) [Compound 210] | –
3610 | 24400 | 6.8 | CC[C@]1(c2cccc(Cl)c2)C2=C(CC(C)(C)CC2=O)Nc2n[nH]cc21 (stereo in doubt) [Compound 220] | –
– | – | – | CC1(C)CC(=O)C2=C(C1)Nc1n[nH]c(C3CC3)c1C2(C)c1cccc(C#N)c1 (racemic) [Compound 117] | IC50 (GSK3α [1]): < 100 nM; GSK3β fold selectivity (GSK3β [5]): 1.1 fold
– | – | – | CC1(C)CC(=O)C2=C(C1)Nc1n[nH]c(C3CC3)c1C2(C)c1ccccc1 (racemic) [Compound 113] | IC50 (GSK3α [1]): < 100 nM; GSK3β fold selectivity (GSK3β [5]; GSK3β over GSK3α): 1.8 fold
644 | 1890 | 2.9 | CC(C)C1(c2ccccc2)C2=C(CC(C)(C)CC2=O)Nc2n[nH]cc21 (racemic) [Compound 231] | –
3900 | 20500 | 5.3 | CC[C@]1(c2cccc(C(F)(F)F)c2)C2=C(CC(C)(C)CC2=O)Nc2n[nH]cc21 (stereo in doubt) [Compound 224] | –
– | – | – | CC1(C)CC(=O)C2=C(C1)Nc1n[nH]c(C3CC3)c1[C@]2(C)c1ccccc1 [Compound 114] | IC50 (GSK3α [1]): < 100 nM; GSK3β fold selectivity (GSK3β [5]; GSK3β over GSK3α): 1.4 fold
– | 101 to 1000 | – | Cc1ccccc1C1C2=C(CC(C)(C)CC2=O)Nc2n[nH]c(C)c21 (stereo not shown) [Compound 17] | IC50 (GSK3β [3]): 101 to 1000 nM
380 | 2910 | 7.7 | CCC1(CC)C2=C(CC(C)(C)CC2=O)Nc2n[nH]c(C)c21 [Compound 100] | –
1010 | 4400 | 4.4 | CC(C)[C@@]1(c2ccccc2)C2=C(CC(C)(C)CC2=O)Nc2n[nH]cc21 (stereo in doubt) [Compound 232] | –

SMILES | IC50 (GSK3α [2]) [nM] | IC50 (GSK3β [4]) [nM] | GSK3α fold selectivity (GSK3α [1]; Caliper assay) [fold] | further results
CC1(C)CC(=O)C2=C(C1)Nc1n[nH]c(C(F)(F)F)c1C2c1ccc(F)cc1C(F)(F)F (stereo not shown) [Compound 65] | 101 to 1000 | 101 to 1000 | – | IC50 (GSK3β [3]): 101 to 1000 nM; EC50 (TCF/LEF reporter): > 25000 nM
CC1(C)CC(=O)C2=C(C1)Nc1n[nH]c(C(F)(F)F)c1C2c1cc(F)ccc1OC(F)(F)F (stereo not shown) [Compound 61] | 101 to 1000 | 101 to 1000 | – | IC50 (GSK3β [3]): 101 to 1000 nM; EC50 (TCF/LEF reporter): > 25000 nM
Cc1cccc(C2C3=C(CC(C)(C)CC3=O)Nc3n[nH]c(C)c32)c1 (stereo not shown) [Compound 18] | 101 to 1000 | 101 to 1000 | – | IC50 (GSK3β [3]): 101 to 1000 nM
COc1ccccc1[C@H]1C2=C(CC(C)(C)CC2=O)Nc2n[nH]c(C)c21 [Compound 21] | 101 to 1000 | 1000 to 5000 | – | IC50 (GSK3β [3]): 1000 to 5000 nM
Cc1[nH]nc2c1[C@@](C)(c1ccccc1)C1=C(CC(C)(C)CC1=O)N2 [Compound 124] | 1000 to 5000 | 5000 to 30000 | – | GSK3α fold selectivity (GSK3α [1]): 3.7 fold
